The compounds below were run on recombinant NL-Rluc virus (assay: Inhibition of HIV replication (NL-RLuc virus in MT-2 cells, luciferase readout)). Details: Human immunodeficiency virus 1, MT2, 120 h, 5 days of incubation, 10% FBS.
Type: cell-based

Going from `Cc1ccc2c(c1)-c1cccc(c1)-c1cc3nc(C)c([C@H](OC(C)(C)C)C(=O)O)c(n3n1)N1CCC(C)(CC1)OCCC[C@@H](C)O2` [Example 60, (2S)-2-(tert-Butoxy)-2-[(22R)-4,17,22,2,7-tetramethyl-21,26-dioxa-1,5,7,8-tetraazahexacyclo[25.2.2.1^6,^9.1^10,^14.0^2,^7.0^15,^20]tritriaconta-2,4,6(33),8,10(32),11,13,15(20),16,18-decaen-3-yl]acetic acid] to `Cc1ccc2c(c1)-c1cccc(c1)-c1cc3nc(C)c([C@H](OC(C)(C)C)C(=O)O)c(n3n1)N1CCC(C)(CC1)OCCC[C@H](C)O2` [Example 61, (2S)-2-(tert-Butoxy)-2-[(22S)-4,17,22,27-tetramethyl-21,26-dioxa-1,5,7,8-tetraazahexacyclo[25.2.2.1^6,^9.1^10,^14.0^2,^7.0^15,^20]tritriaconta-2,4,6(33),8,10(32),11,13,15(20),16,18-decaen-3-yl]acetic acid], the EC50 falls from 84 nM to 10 nM (8.4-fold). The second is the more potent here.

`Cc1nc2cc3nn2c(c1[C@H](OC(C)(C)C)C(=O)O)N1CCC(C)(CC1)OCC=CCOc1ccc(F)cc1-c1cccc-3c1` [Example 62] and `Cc1nc2cc3nn2c(c1[C@H](OC(C)(C)C)C(=O)O)N1CCC(C)(CC1)OCCCCOc1ccc(F)cc1-c1cccc-3c1` [Example 63, (2S)-2-(tert-Butoxy)-2-{17-fluoro-4,27-dimethyl-21,26-dioxa-1,5,7,8-tetraazahexacyclo[25.2.2.1^6,^9.1^10,^14.0^2,^7.0^15,^20]tritriaconta-2,4,6(33),8,10(32),11,13,15(20),16,18-decaen-3-yl}acetic acid] are the same in EC50: 7 nM for the first, 7 nM for the second.

First: Cc1ccc2c(c1)-c1cccc(c1)-c1cc3nc(C)c([C@H](OC(C)(C)C)C(=O)O)c(n3n1)N1CCC(C)(CC1)OCC=CCC[C@H](C)O2 [Example 64, (2S)-2-(tert-Butoxy)-2-[(22S)-4,17,22,29-tetramethyl-21,28-dioxa-1,5,7,8-tetraazahexacyclo[27.2.2.1^6,^9.1^10,^14.0^2,^7.0^15,^20]pentatriaconta-2,4,6(35),8,10(34), 11, 13, 15(20),16,18,25-undecaen-3-yl]acetic acid]
Second: Cc1nc2cc3nn2c(c1[C@H](OC(C)(C)C)C(=O)O)N1CCC(C)(CC1)OCC=CC[C@H](C)Oc1ccc(C(N)=O)cc1-c1cccc-3c1 [Example 72, (2S)-2-(tert-Butoxy)-2-[(22S)-17-carbamoyl-4,22,27-trimethyl-21,26-dioxa-1,5,7,8-tetraazahexacyclo[25.2.2.1^6,^9.1^10,^14.0^2,^7.0^15,^20]tritriaconta-2,4, 6(33), 8, 10(32), 11, 13, 15(20),16,18,23-undecaen-3-yl]acetic acid]
The EC50 of the first is 1.7-fold higher: 26 nM for the first, 15 nM for the second.

`Cc1cc2c(cc1Cl)O[C@@H](C)CC=CCOC1(C)CCN(CC1)c1c([C@H](OC(C)(C)C)C(=O)O)c(C)nc3cc(nn13)-c1cccc-2c1` [Example 66, (2S)-2-(tert-Butoxy)-2-[(22S)-18-chloro-4,17,22,28-tetramethyl-21,27-dioxa-1,5,7,8-tetraazahexacyclo[26.2.2.1^6,^9.1^10,^14.0^2,^7.0^15,^20]tetratriaconta-2,4,6(34),8,10(33), 11, 13, 15(20),16,18,24-undecaen-3-yl]acetic acid] and `Cc1cc2c(cc1C)-c1cccc(c1)-c1cc3nc(C)c([C@H](OC(C)(C)C)C(=O)O)c(n3n1)N1CCC(C)(CC1)OCC=CC[C@H](C)O2` [Example 75, (2S)-2-(tert-Butoxy)-2-[(22S)-4,17,18,22,28-pentamethyl-21,27-dioxa-1,5,7,8-tetraazahexacyclo[26.2.2.1^6,^9.1^10,^14.0^2,^7.0^15,^20]tetratriaconta-2,4,6(34),8,10(33), 11, 13, 15 (20),16,18,24-undecaen-3-yl]acetic acid] are within 1.5-fold of each other in EC50: 43 nM for the first, 34 nM for the second.

First: Cc1cc2c(cc1Cl)O[C@@H](C)CCCCOC1(C)CCN(CC1)c1c([C@H](OC(C)(C)C)C(=O)O)c(C)nc3cc(nn13)-c1cccc-2c1 [Example 67, (2S)-2-(tert-butoxy)-2-[(22S)-18-chloro-4,17,22,28-tetramethyl-21,27-dioxa-1,5,7,8-tetraazahexacyclo[26.2.2.1^6,^9.1^10,^14.0^2,^7.0^15,^20]tetratriaconta-2,4,6(34),8,10(33), 11, 13, 15 (20),16,18-decaen-3-yl]acetic acid]
Second: Cc1cc2c(cc1C)-c1cccc(c1)-c1cc3nc(C)c([C@H](OC(C)(C)C)C(=O)O)c(n3n1)N1CCC(C)(CC1)OCCCC[C@H](C)O2 [Example 76, (2S)-2-(tert-Butoxy)-2-[(22S)-4,17,18,22,28-pentamethyl-21,27-dioxa-1,5,7,8-tetraazahexacyclo[26.2.2.1^6,^9.1^10,^14.0^2,^7.0^15,^20]tetratriaconta-2,4,6(34),8,10(33),11,13,15(20),16,18-decaen-3-yl]acetic acid]
The EC50 of the first is 3.8-fold higher: 109 nM for the first, 29 nM for the second.

Going from `Cc1ccc2c(c1F)-c1cccc(c1)-c1cc3nc(C)c([C@H](OC(C)(C)C)C(=O)O)c(n3n1)N1CCC(C)(CC1)OC/C=C/C[C@H](C)O2` [Example 68, (2S)-2-(tert-Butoxy)-2-[(22S,^24E)-16-fluoro-4,17,22,28-tetramethyl-21,27-dioxa-1,5,7,8-tetraazahexacyclo[26.2.2.1^6,^9.1^10,^14. 0^2,^7.0^15,^20]tetratriaconta-2,4,6(34),8,10(33), 11, 13, 15 (20), 16,18,24-undecaen-3-yl]acetic acid] to `Cc1ccc2c(c1F)-c1cccc(c1)-c1cc3nc(C)c([C@H](OC(C)(C)C)C(=O)O)c(n3n1)N1CCC(C)(CC1)OC/C=C\C[C@H](C)O2` [Example 69, (2S)-2-(tert-Butoxy)-2-[(22S,24Z)-16-fluoro-4,17,22,28-tetramethyl-21,27-dioxa-1,5,7,8-tetraazahexacyclo[26.2.2.1^6,^9.1^10,^14.0^2,^7.0^15,^20]tetratriaconta-2,4,6(34),8,10(33), 11, 13, 15 (20),16,18,24-undecaen-3-yl]acetic acid], the EC50 rises from 9 nM to 21 nM (2.3-fold).

`Cc1ccc2c(c1F)-c1cccc(c1)-c1cc3nc(C)c([C@H](OC(C)(C)C)C(=O)O)c(n3n1)N1CCC(C)(CC1)OCCCC[C@H](C)O2` [Example 70, (2S)-2-(tert-Butoxy)-2-[(22S)-16-fluoro-4,17,22,28-tetramethyl-21,27-dioxa-1,5,7,8-tetraazahexacyclo[26.2.2.1^6,^9.1^10,^14.0^2,^7.0^15,^20]tetratriaconta-2,4, 6(34), 8, 10(33), 11, 13, 15(20),16,18-decaen-3-yl]acetic acid] and `Cc1cccc2c1-c1cccc(c1)-c1cc3nc(C)c([C@H](OC(C)(C)C)C(=O)O)c(n3n1)N1CCC(C)(CC1)OCCCC[C@H](C)O2` [Example 77, (2S)-2-(tert-Butoxy)-2-[(22S)-4,16,22,28-tetramethyl-21,27-dioxa-1,5,7,8-tetraazahexacyclo[26.2.2.1^6,^9.1^10,^14.0^2,^7.0^15,^20]tetratriaconta-2,4,6(34),8,10(33), 11, 13, 15(20),16,18-decaen-3-yl]acetic acid] are within 1.5-fold of each other in EC50: 19 nM for the first, 21 nM for the second.

Going from `Cc1nc2cc3nn2c(c1[C@H](OC(C)(C)C)C(=O)O)N1CCC(C)(CC1)OCCCC[C@H](C)Oc1ccc(C#N)cc1-c1cccc-3c1` [Example 73, (2S)-2-(tert-Butoxy)-2-[(22S)-17-cyano-4,22,28-trimethyl-21,27-dioxa-1,5,7,8-tetraazahexacyclo[26.2.2.1^6,^9.1^10,^14.0^2,^7.0^15,^20]tetratriaconta-2,4,6(34),8,10(33), 11, 13, 15(20),16,18-decaen-3-yl]acetic acid] to `Cc1nc2cc3nn2c(c1[C@H](OC(C)(C)C)C(=O)O)N1CCC(C)(CC1)OCCCC[C@H](C)Oc1ccc(F)cc1-c1cccc-3c1` [Example 81, (2S)-2-(tert-Butoxy)-2-[(22S)-17-fluoro-4,22,28-trimethyl-21,27-dioxa-1,5,7,8-tetraazahexacyclo[26.2.2.1^6,^9.1^10,^14.0^2,^7.0^15,^20]tetratriaconta-2,4,6(34),8,10(33),11,13, 15(20),16,18-decaen-3-yl]acetic acid], the EC50 rises from 6 nM to 13 nM (2.2-fold). The first is the more potent here.

Compared with `Cc1ccc2c(c1)O[C@@H](C)CCCCOC1(C)CCN(CC1)c1c([C@H](OC(C)(C)C)C(=O)O)c(C)nc3cc(nn13)-c1cccc-2c1` [Example 74, (2S)-2-(tert-Butoxy)-2-[(22S)-4,18,22,28-tetramethyl-21,27-dioxa-1,5,7,8-tetraazahexacyclo[26.2.2.1^6,^9.1^10,^14.0^2,^7.0^15,^20]tetratriaconta-2,4,6(34),8,10(33),11,13,15(20),16,18-decaen-3-yl]acetic acid], `Cc1nc2cc3nn2c(c1[C@H](OC(C)(C)C)C(=O)O)N1CCC(C)(CC1)OCCCC[C@H](C)Oc1ccc(Cl)cc1-c1cccc-3c1` [Example 82, (2S)-2-(tert-Butoxy)-2-[(22S)-17-chloro-4,22,28-trimethyl-21,27-dioxa-1,5,7,8-tetraazahexacyclo[26.2.2.1^6,^9.1^10,^14.0^2,^7.0^15,^20]tetratriaconta-2,4,6(34),8,10(33), 11, 13, 15 (20),16,18-decaen-3-yl]acetic acid] is 1.8-fold lower in EC50: 36 nM for the first, 20 nM for the second.

`Cc1cc2c(cc1F)O[C@@H](C)CC=CCOC1(C)CCN(CC1)c1c([C@H](OC(C)(C)C)C(=O)O)c(C)nc3cc(nn13)-c1cccc-2c1` [Example 78, (2S)-2-(tert-Butoxy)-2-[(22S)-18-fluoro-4,17,22,28-tetramethyl-21,27-dioxa-1,5,7,8-tetraazahexacyclo[26.2.2.1^6,^9.1^10,^14.0^2,^7.0^15,^20]tetratriaconta-2,4,6(34),8,10(33),11,13, 15(20), 16,18,24-undecaen-3-yl]acetic acid] and `Cc1cc2c(cc1F)O[C@@H](C)CCCCOC1(C)CCN(CC1)c1c([C@H](OC(C)(C)C)C(=O)O)c(C)nc3cc(nn13)-c1cccc-2c1` [Example 79, (2S)-2-(tert-Butoxy)-2-[(22S)-18-fluoro-4,17,22,28-tetramethyl-21,27-dioxa-1,5,7,8-tetraazahexacyclo[26.2.2.1^6,^9.1^10,^14.0^2,^7.0^15,^20]tetratriaconta-2,4,6(34),8,10(33),11,13,15(20),16,18-decaen-3-yl]acetic acid] are within 1.5-fold of each other in EC50: 31 nM for the first, 38 nM for the second.

Source: patent publication US8906929B2, “Inhibitors of human immunodeficiency virus replication” (priority 2012, dated 2014)
